# Patent US8236279B2, “Bisaminoethanethiol-targeting ligand conjugates and compositions” (priority 1999, dated 2012)
# “Also recorded” adds a separate entry of the source.
# Assays:
# [1] = tested on: Breast Tumor-Bearing Rats (13762 tumor cell line); assay: Tissue distribution (biodistribution) studies in breast tumor-bearing rats; details: for tumor/blood and tumor/muscle count density ratios, course over time: […] (so in the source); for Biodistribution: Brain / Biodistribution: Heart / Biodistribution: Spleen / Tumor/Blood ratio / Tumor/Liver ratio / Tumor/Muscle ratio: Table 9
# Protocol: Studies performed 14 to 17 days after implantation when tumors reached approximately 1 cm diameter. Animals were anesthetized with ketamine (10-15 mg/rat, intraperitoneally) before each procedure.
# The injected mass of each ligand was 10 μg per rat. At 20 min, 1, 2 and 4 h following administration of the radiopharmaceuticals, the anesthetized animals were sacrificed and the tumor and selected tissues were excised, weighed and counted for radioactivity by a gamma counter (Packard Instruments, Downers Grove, Ill.). The biodistribution of tracer in each sample was calculated as percentage of the injected dose per gram of tissue wet weight (% ID/g). Counts from a diluted sample of the original injectate were used for reference. Tumor/nontarget tissue count density ratios were calculated from the corresponding % ID/g values. Student-t test was used to assess the significance of differences between two groups.
# Studies performed 14 to 17 days after implantation when tumors reached approximately 1 cm diameter. Rats were anesthetized with ketamine (10-15 mg/rat, intraperitoneally) before each procedure.
# In tissue distribution studies, each animal was injected intravenously with 370-550 KBq of ^99mTc-EC-MN or ^99mTc-EC (n=3/time point). The injected mass of ^99mTc-EC-MN was 10 μg per rat. At 0.5, 2 and 4 hrs following administration of the radiotracers, the rats were sacrificed and the selected tissues were excised, weighed and counted for radioactivity. The biodistribution of tracer in each sample was calculated as percentage of the injected dose per gram of tissue wet weight (% ID/g). Tumor/nontarget tissue count density radios were calculated from the corresponding % ID/g values. […] Student t-test was used to assess the significance of differences between groups.
# (§1) At 0.5, 2 and 4 hrs following administration of the radiotracers, the rats were sacrificed and the selected tissues were excised, weighed and counted for radioactivity. The biodistribution of tracer in each sample was calculated as percentage of the injected dose per gram of tissue wet weight (% ID/g). Tumor/nontarget tissue count density ratios were calculated from the corresponding % ID/g values. Student t-test was used to assess the significance of differences between groups.
# as §1, with “hours” for “hrs”, “values.” for “values. Student t-test was used to assess the significance of differences between groups.”
# Studies were performed 14 to 17 days after implantation when tumors reached approximately 1 cm diameter. Rats were anesthetized with ketamine (10-15 mg/rat, intraperitoneally) before each procedure.
# In tissue distribution studies, each animal was injected intravenously with 10-20 μCi (per rat) or 1-2 μCi (per mouse) of ^99mTc-EC or ^99mTc-EC-DG (n=3/time point). The injected mass of ^99mTc-EC-DG was 1 mg per rat. At 0.5, 2 and 4 hours following administration of the radiotracers, the rodents were sacrificed and the selected tissues were excised, weighed and counted for radioactivity. The biodistribution of tracer in each sample was calculated as percentage of the injected dose per gram of tissue wet weight (% ID/g). Tumor/nontarget tissue count density ratios were calculated from the corresponding % ID/g values.
# hexokinase = assay: Hexokinase assay (glucose phosphorylation); assay type: biochemical; details: UV wavelength 340 nm
# Protocol: To determine if EC-DG mimics glucose phosphorylation, a hexokinase assay was conducted. Using a ready made kit (Sigma Chemical Company), EC-DG, glucosamine and glucose (standard) were assayed at UV wavelength 340 nm.
# [2] = list continues over wrapped lines of the table; cited from earlier work
# Water solubility = assay type: physicochemical
# [3] = tested on: breast (13762) and lung (A549) cancer cells; assay: Effect of d- and l-glucose on cellular uptake; assay type: cell-based; details: 1-2.0 mg/well, 2 hours incubation
# Protocol: To evaluate if the uptake of ^99mTc-EC-deoxyglucose is mediated via d-glucose mechanism, d- and l-glucose (1 mg and 2.0 mg) were added to, each well containing either breast or lung cancer cells (50,000/0.5 ml/well), along with 2 μCi of ^99mTc-EC-deoxyglucose and ^18F-FDG. After 2 hours incubation, the cells were washed with phosphate buffered saline 3 times and followed by trypsin to lose the cells. The cells were counted by a gamma counter.
# [4] = tested on: breast tumor-bearing rats; assay: Scintigraphic (gamma camera) imaging studies in tumor-bearing rats; assay type: in vivo; details: different time points (0.5-4 hrs) after i.v. injection
# [5] = tested on: A549 lung cancer cell line; assay: In vitro cellular uptake assay; assay type: cell-based, human; details: 2 μCi per well, 80,000 cells, incubation 0.5-4 hours
# Protocol: After incubation at 0.5-4 hours, the cells were washed with phosphate buffered saline 3 times and followed by trypsin to lose the cells.
# In vitro cellular uptake assay was conducted by using a human lung cancer cell line (A549). Two μCi of ^99mTc-EC-DG and ^18F-FDG were added to wells containing 80,000 cells each. After incubation at 0.5-4 hours, the cells were washed with phosphate buffered saline 3 times and followed by trypsin to lose the cells. The cells were then counted by a gamma counter.
# [6] = tested on: patients (3 brain tumors and 2 lung diseases); assay: Preliminary clinical imaging studies in patients (brain tumors, lung diseases); assay type: in vivo, human; details: images 1-2 hours post-administration
# Protocol: Scintigraphic images, using a gamma camera equipped with low-energy, parallel-hole collimator, were obtained 0.5, 2 and 4 hours after i.v. injection of 100 μCi of the radiotracer. The animal model used was breast tumor-bearing rats. […] Preliminary clinical studies were conducted in 5 patients (3 brain tumors and 2 lung diseases).
# [7] = Effect of loading on blood glucose level in normal rats; assay type: in vivo, Fischer 344 rats; details: insulin (5 units) after 30 minutes
# Protocol: The blood glucose level (mg/dl) was determined by a glucose meter (Glucometer DEX, Bayer Corporation, Elkhart, Ind.). Prior to the study, the baseline of blood glucose level was obtained. […] In a separate experiment, a group of rats was administered EC-deoxyglucose and FDG. Insulin (5 units) was administered after 30 minutes.
# [8] = tested on: two lung cancer cell lines and one breast cell line (A549, H1299, 13762); assay: Effect of glucose on cellular uptake; assay type: cell-based
# Protocol: Neomycin is known to influence glucose absorption (Rogers et al., 1968; Fanciulli et al., 1994). […] After incubation, the cells were washed with phosphate buffered saline 3 times and followed by trypsin to lose the cells. The cells were then counted by a gamma counter.
molecule,measurement,setting,value
O=[N+]([O-])c1nccn1CC(O)C[131I] (centres unmarked) [[^131I]IMISO],"Tumor/blood and tumor/muscle ratios, 99mTc-EC-MN versus [131I]IMISO","[1]; 2 and 4 hrs postinjection, (p<0.05) as printed",not significantly different
same,"tumor/blood and tumor/muscle count density ratios, course over time",[1],gradually increased
OC[C@H]1OC(O)[C@H](O)[C@@H](O)[C@@H]1O (some centres unmarked) [Glucose],hexokinase assay,hexokinase,positive
N[C@H]1C(O)O[C@H](CO)[C@@H](O)[C@@H]1O (some centres unmarked) [glucosamine],hexokinase assay,hexokinase,positive
CCC1(c2ccc(N)cc2)CCC(=O)NC1=O (centres unmarked) [Aminogiutethimide],Acute Toxicity,[2],Drowsiness; nausea; dizziness; rash
same,Delayed toxicity,[2],Hypothryroidism (rare); bone
COc1cc(NS(C)(=O)=O)ccc1Nc1c2ccccc2nc2ccccc12 [Amsacrine],Delayed toxicity,[2],Bone marrow depression;
O=[N+]([O-])c1nccn1CC(O)C[18F] (centres unmarked) [[^18F]FMISO],"tumor-to-blood uptake ratio, comparison among [18F]FMISO, [131I]IMISO and 99mTc-EC-MN","[1]; 30 min, 2 and 4 hrs post-injection",highest
same,"tumor/blood and tumor/muscle count density ratios, course over time",[1],gradually increased
[O]=[99Tc](=[O])(=[O])[O-] [^99mTc Pertechnetate],Biodistribution: Brain,[1]; 2 Hour,0.022 ± 0.002 % ID/g
same,Biodistribution: Heart,[1]; 2 Hour,0.145 ± 0.015 % ID/g
same,Biodistribution: Spleen,[1]; 2 Hour,0.187 ± 0.014 % ID/g
same,Tumor/Blood ratio,[1]; 2 Hour,0.497 ± 0.073
same,Tumor/Liver ratio,[1]; 2 Hour,1.084 ± 0.115
same,Tumor/Muscle ratio,[1]; 2 Hour,4.302 ± 0.093
same,Biodistribution: Brain,[1]; 4 Hour,0.031 ± 0.009 % ID/g
same,Biodistribution: Heart,[1]; 4 Hour,0.166 ± 0.012 % ID/g
same,Biodistribution: Spleen,[1]; 4 Hour,0.225 ± 0.017 % ID/g
same,Tumor/Blood ratio,[1]; 4 Hour,0.597 ± 0.144
same,Tumor/Liver ratio,[1]; 4 Hour,0.865 ± 0.270
same,Tumor/Muscle ratio,[1]; 4 Hour,6.689 ± 1.458
same,Biodistribution: Brain,[1]; 30 Min.,0.038 ± 0.014 % ID/g
same,Biodistribution: Heart,[1]; 30 Min.,0.275 ± 0.089 % ID/g
same,Biodistribution: Spleen,[1]; 30 Min.,0.331 ± 0.108 % ID/g
same,Tumor/Blood ratio,[1]; 30 Min.,0.472 ± 0.093
same,Tumor/Liver ratio,[1]; 30 Min.,1.084 ± 0.023
same,Tumor/Muscle ratio,[1]; 30 Min.,4.788 ± 0.833
"L,L-ethylenedicysteine [EC]",water solubility,Water solubility,water soluble
OC[C@H]1OC(O)[C@H]([18F])[C@@H](O)[C@@H]1O (some centres unmarked) [^18F-FDG],effect of d-glucose on cellular uptake,[3],decreased uptake
same,effect of l-glucose on cellular uptake,[3],no influence
Aldesleukin,Acute Toxicity,[2],Fever; fluid retention; hypertension;
same,Delayed toxicity,[2],Neuropsychiatric disorders;
O=C(N[C@H]1C(O)O[C@H](CO)[C@@H](O)[C@@H]1O)[C@@H]1C[S][Tc]23(=[O])[S]C[C@@H](C(=O)N[C@H]4C(O)O[C@H](CO)[C@@H](O)[C@@H]4O)[N]2CC[N]13 (some centres unmarked) [^99mTc-EC-DG],"tumor-to tissue ratios, course over time, compared to 99mTc-EC and free technetium",[1]; 0.5-4 hours,increased as a function of time
same,Scintigraphic images: visualization of tumor / tumor uptake,[4],visualized well
same,Scintigraphic images: visualization of tumor / tumor uptake,[4]; listed as 99mTc-EC-deoxyglucose,well visualized
same,cellular uptake,[5],comparable to FDG
same,effect of d-glucose on cellular uptake,[3],decreased uptake
same,effect of l-glucose on cellular uptake,[3],no influence
same,differentiation of benign versus malignant tumors,[6],able to differentiate benign versus malignant tumors
same,uptake in benign meningioma,[6],no focal intensed uptake; also recorded: poor uptake
same,uptake in lung tumor,[6],focal intensed uptake; also recorded: high uptake
same,uptake in malignant astrocytoma,[6],high uptake
same,uptake in patient with TB,[6],no focal intensed uptake; also recorded: Poor uptake
OC[C@H]1OC(O)[C@H](F)[C@@H](O)[C@@H]1O (some centres unmarked) [FDG],increased blood glucose level on co-administration with insulin,[7],suppressed
"O=C(O)[C@@H]1C[S][99Tc]23(=[O])[S]C[C@@H](C(=O)O)[N]2CC[N]13 [^99mTc-EC, ^99mTc-L,L-ethylenedicysteine]","tumor/blood count density ratios, course over time",[1]; 20 min-4 h,decreased
same,"tumor/blood and tumor/muscle count density ratios, course over time",[1],did not alter
same,"tumor-to-blood and tumor-to-muscle values, course over time",[1]; same time period (0.5-4 hours),time-dependent decrease
same,Scintigraphic images: visualization of tumor / tumor uptake,[4],no apparent tumor uptake; also recorded: less tumor uptake
same,cellular uptake of control,[8],no uptake
"Asparaginase: anticancer drug listed in Table 2 (protein, UniProt P00805 23-348, looked up) L-asparaginase 2: LPNITILATGGTIAGGGDSATKSNYTVGKVGVENLVNAVPQLKDIANVKGEQVVNIGSQDMNDNVWLTLAKKINTDCDKTDGFVITHGTDTMEETAYFLDLTVKCDKPVVMVGAMRPSTSMSADGPFNLYNAVVTAADKASANRGVLVVMNDTVLDGRDVTKTNTTDVATFKSVNYGPLGYIHNGKIDYQRTPARKHTSDTPFDVSKLNELPKVGIVYNYANASDLPAKALVDAGYDGIVSAGVGNGNLYKSVFDTLATAAKTGTAVVRSSRVPTGATTQDAEVDDAKYGFVASGTLNPQKARVLLQLALTQTKDPQQIQQIFNQY",Acute Toxicity,[2],Nausea and vomiting; fever; chills;
